Laboratory results published in ChEMBL document CHEMBL4396952, “Xanthone, benzophenone and bianthrone derivatives from the hypersaline lake-derived fungus Aspergillus wentii” (Bioorg Med Chem, 2019).
Active and inactive are the calls of the source. The rule behind the calls is not given here.

Experiments:
A2780S [1] = experiment: Cytotoxicity against human A2780S cells at 10 ug/ml; assay type: functional, cell-based
Enterococcus faecium = experiment: Antibacterial activity against Enterococcus faecium; assay type: functional, organism-based
A2780S [2] = experiment: Cytotoxicity against human A2780S cells at 10 uM; assay type: functional, cell-based
Klebsiella pneumoniae = experiment: Antibacterial activity against Klebsiella pneumoniae; assay type: functional, organism-based
Klebsiella aerogenes = experiment: Antibacterial activity against Enterobacter aerogenes; assay type: functional, organism-based
A2780S [3] = experiment: Cytotoxicity against human A2780S cells at 100 uM; assay type: functional, cell-based
[4] = system: Mycobacterium tuberculosis; experiment: Antitubercular activity against Mycobacterium tuberculosis H37Rv; assay type: functional, organism-based
Pseudomonas aeruginosa = experiment: Antibacterial activity against Pseudomonas aeruginosa; assay type: functional, organism-based
L5178Y [5] = experiment: Cytotoxicity against mouse L5178Y cells at 10 ug/ml; assay type: functional, cell-based
Escherichia coli = experiment: Antibacterial activity against Escherichia coli; assay type: functional, organism-based
L5178Y [6] = experiment: Cytotoxicity against mouse L5178Y cells at 100 uM; assay type: functional, cell-based
Acinetobacter baumannii = experiment: Antibacterial activity against Acinetobacter baumannii; assay type: functional, organism-based
L5178Y [7] = experiment: Cytotoxicity against mouse L5178Y cells at 10 uM; assay type: functional, cell-based
Staphylococcus aureus = experiment: Antibacterial activity against Staphylococcus aureus ATCC 29213; assay type: functional, organism-based
[8] = Stability of the compound by HPLC analysis; assay type: physicochemical

Structure (SMILES) | Activity (A2780S [1]) | Activity (Enterococcus faecium) | Activity (A2780S [2]) | Activity (Klebsiella pneumoniae) | Activity (Klebsiella aerogenes) | Activity (A2780S [3]) | Activity [4] | Activity (Pseudomonas aeruginosa) | Activity (L5178Y [5]) | Activity (Escherichia coli) | Activity (L5178Y [6]) | Activity (Acinetobacter baumannii) | Activity (L5178Y [7]) | Activity (Staphylococcus aureus) | Stability [8]
COc1cc(O)cc2c1C(=O)c1c(O)cc(C)cc1C2=O | inactive | inactive | inactive | inactive | inactive | inactive | inactive | inactive | inactive | inactive | inactive | inactive | inactive | inactive | 
Cc1cc(O)c2c(c1)C(=O)c1cc(O)cc(O)c1C2=O | inactive | inactive | inactive | inactive | inactive | inactive | inactive | inactive | inactive | inactive | inactive | inactive | inactive | inactive | 
Cc1cc(O)cc(O)c1-c1cc(=O)c2c(O)cc(O)cc2o1 | inactive | inactive | inactive | inactive | inactive | inactive | inactive | inactive | inactive | inactive | inactive | inactive | inactive | inactive | 
COc1cc(C(=O)O)c2c(=O)c3c(O)cc(C)cc3oc2c1 | inactive | inactive | inactive | inactive | inactive | inactive | inactive | inactive | inactive | inactive | inactive | inactive | inactive | inactive | 
COC(=O)c1cc(OC)cc(OC)c1C(=O)c1c(O)cc(C)cc1O | inactive | inactive | inactive | inactive | inactive | inactive | inactive | inactive | inactive | inactive | inactive | inactive | inactive | inactive | 
COc1cc(OC)c2c(c1)C(C1c3cc(O)cc(O)c3C(=O)c3c1cc(C)c(C(=O)OC[C@@H](O)CO)c3O)c1cc(C)cc(O)c1C2=O (stereo partly specified) |  |  |  |  |  |  |  |  |  |  |  |  |  |  | Unstable
COc1cc(O)c2c(c1)[C@@H]([C@H]1c3cc(O)cc(O)c3C(=O)c3c1cc(C)c(C(=O)OC[C@@H](O)CO)c3O)c1cc(C)cc(O)c1C2=O |  |  |  |  |  |  |  |  |  |  |  |  |  |  | Unstable
Cc1cc(=O)c2c(C)cc3cc(O)cc(O)c3c2o1 | inactive | inactive | inactive | inactive | inactive | inactive | inactive | inactive | inactive | inactive | inactive | inactive | inactive | inactive | 
COc1cc(O)c2c(c1)[C@@H]([C@@H]1c3cc(O)cc(O)c3C(=O)c3c1cc(C)c(C(=O)OC[C@@H](O)CO)c3O)c1cc(C)cc(O)c1C2=O |  |  |  |  |  |  |  |  |  |  |  |  |  |  | Unstable
COc1cc(O)c2c(c1)C(C1c3cc(C)cc(O)c3C(=O)c3c(O)cc(OC)cc31)c1cc(C)cc(O)c1C2=O (stereo unspecified) |  |  |  |  |  |  |  |  |  |  |  |  |  |  | Unstable
Cc1cc2c(c(O)c1C(=O)OC[C@@H](O)CO)C(=O)c1c(O)cc(O)cc1C2=O | inactive | inactive | inactive | inactive | inactive | inactive | inactive | inactive | inactive | inactive | inactive | inactive | inactive | inactive | 
Cc1cc(O)c2c(=O)c3c(C(=O)O)cc(O)cc3oc2c1 | inactive | inactive | inactive | inactive | inactive | inactive | inactive | inactive | inactive | inactive | inactive | inactive | inactive | inactive | 
Cc1cc2cc(O)cc(O)c2c2oc(=O)cc(O)c12 | inactive | inactive | inactive | inactive | inactive | inactive | inactive | inactive | inactive | inactive | inactive | inactive | inactive | inactive | 
COC(=O)c1cc(C)c(C(=O)OC[C@@H](O)CO)c2oc3cc(O)cc(O)c3c(=O)c12 |  |  |  |  |  |  | inactive |  | inactive |  | inactive |  | inactive |  | 
COc1cc(OC)c2c(c1)C(=O)c1cc(C)cc(O)c1C2=O | inactive |  | inactive |  |  | inactive | inactive |  | inactive |  | inactive |  | inactive |  | 
COC(=O)c1cc(C)c(C(=O)OC[C@@H](O)CO)c(OC)c1C(=O)c1c(C)cc(O)cc1O |  |  |  |  |  |  | inactive |  | inactive |  | inactive |  | inactive |  | 
COc1cc(OC)c2c(c1)C(C1c3cc(C)cc(O)c3C(=O)c3c(OC)cc(OC)cc31)c1cc(C)cc(O)c1C2=O (stereo unspecified) |  |  |  |  |  |  |  |  |  |  |  |  |  |  | Unstable
COC(=O)c1cc(O)cc(OC)c1C(=O)c1c(O)cc(C)cc1O | inactive | inactive | inactive | inactive | inactive | inactive | inactive | inactive | inactive | inactive | inactive | inactive | inactive | inactive | 
COc1cc(OC)c2c(c1)[C@@H]([C@@H]1c3cc(C)cc(O)c3C(=O)c3c(OC)cc(O)cc31)c1cc(C)cc(O)c1C2=O |  |  |  |  |  |  |  |  |  |  |  |  |  |  | Unstable
COc1cc(OC)c2c(c1)[C@H]([C@H]1c3cc(C)cc(O)c3C(=O)c3c(OC)cc(O)cc31)c1cc(C)cc(O)c1C2=O |  |  |  |  |  |  |  |  |  |  |  |  |  |  | Unstable
COC(=O)c1cc(O)cc(O)c1C(=O)c1c(O)cc(C)cc1O | inactive | inactive | inactive | inactive | inactive | inactive | inactive | inactive | inactive | inactive | inactive | inactive | inactive | inactive | 
